According to patent US20240254129A1, “HETEROCYCLIC COMPOUNDS AND USES THEREOF” (Kumquat Biosciences Inc., priority 2021, published 2024):
Like-named read-outs stand apart in the source and are kept apart here. One block for each compound: values may come before it.

How the values were obtained:
[1] = target: T1, K-Ras G12D mutant (Homo sapiens, UniProt P01116, G12D); test: Nucleotide exchange assay (SOS1, BODIPY FL GDP), mutant K-Ras; format: biochemical; conditions: compound marked *: general methodology of example 7 (nucleotide exchange); read-out: IC50 against mutant Kras
T1 construct: GST (N); made in house; host or cells: E. coli BL21 (DE3)
T1 sequence (P01116 1-188 isoform P01116-2 G12D): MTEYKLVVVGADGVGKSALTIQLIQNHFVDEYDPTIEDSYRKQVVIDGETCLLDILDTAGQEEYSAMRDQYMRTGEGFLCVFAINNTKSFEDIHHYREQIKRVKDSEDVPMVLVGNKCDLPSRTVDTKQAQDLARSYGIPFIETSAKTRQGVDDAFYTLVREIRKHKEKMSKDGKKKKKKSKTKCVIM
Description: (§1) This assay can be also used to assess a selective inhibition of a mutant Ras protein relative to a wildtype, or relative to a different mutant Ras protein. For example, 250 nM or 500 nM GDP-loaded K-Ras proteins (e.g., wildtype or a mutant thereof including those mentioned in Example 6), each was incubated with different concentrations of compounds (for example ˜60 μM, ˜20 μM, ˜6.7 μM, ˜2.2 μM, ˜0.7 µM, ˜0.2 μM subject compound). A control reaction without subject compound was also included. SOS1 (catalytic domain) protein was added to the K-Ras protein solution. The nucleotide exchange reaction was initiated by adding fluorescent labelled GDP (Guanosine 5′-Diphosphate, BODIPY™ FL 2′-(or-3′)—O—(N-(2-Aminoethyl) Urethane) to a final concentration of 0.36 μM. Fluorescence was measured every 30 s for 70 minutes at 490 nm/515 nm (excitation/emission) in a M1000Pro plate reader (Tecan). Data is exported and analyzed to calculate an IC50 using GraphPad Prism (GraphPad Software). Sample(s) was tested with or without a subject compound disclosed herein including compound(s) exemplified in Table 1 to assess compound's ability to inhibit K-Ras signaling or its IC50 against a given Ras protein (e.g., a given mutant K-Ras) of interest.

[2] = target: T2, wildtype K-Ras (Homo sapiens, UniProt P01116); test: Nucleotide exchange assay (SOS1, BODIPY FL GDP), wildtype K-Ras; format: biochemical; conditions: compound marked *: general methodology of example 7 (nucleotide exchange); read-out: IC50 against wildtype Kras
T2 construct: GST (N); made in house; host or cells: E. coli BL21 (DE3)
T2 sequence (P01116 1-188 isoform P01116-2): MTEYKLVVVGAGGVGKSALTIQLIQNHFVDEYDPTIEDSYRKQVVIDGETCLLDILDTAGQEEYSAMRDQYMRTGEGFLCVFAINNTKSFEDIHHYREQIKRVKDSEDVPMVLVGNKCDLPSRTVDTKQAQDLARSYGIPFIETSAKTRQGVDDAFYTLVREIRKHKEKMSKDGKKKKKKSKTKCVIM
Description: as §1

[3] = target: T3, wildtype Kras / hSOS1 (Homo sapiens, UniProt P01116); test: HTRF assay, wildtype Kras / SOS1 interaction; format: binding; conditions: read-out: IC50 against wildtype Kras
T3 construct: made in house; host or cells: E. coli BL21 (DE3)
T3 sequence (P01116 1-188 isoform P01116-2): as above
How it was run: (§2)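 Inhibition of wildtype or mutant K-Ras binding to hSOS1 is measured by FRET between antibody-bound Eu donor and XL665 acceptor. Protein levels are matched to the IC50 range under study. The 665/620 nm signal after ≥10 min yields IC50.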

[4] = target: GST-tagged K-Ras mutant / His-tagged hSOS1 (Homo sapiens, UniProt P01116); test: HTRF assay, K-Ras mutant / SOS1 interaction; format: binding; conditions: read-out: IC50 against mutant Kras
Chain of GST-tagged K-Ras mutant / His-tagged hSOS1 (P01116 whole entry G12D, form open): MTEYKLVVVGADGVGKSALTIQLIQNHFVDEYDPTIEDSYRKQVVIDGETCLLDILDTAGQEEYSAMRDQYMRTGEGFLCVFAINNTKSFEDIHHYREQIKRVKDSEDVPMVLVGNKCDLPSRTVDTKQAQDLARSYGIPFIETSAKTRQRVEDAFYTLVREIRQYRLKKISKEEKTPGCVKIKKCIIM
How it was run: as §2

[5] = compound nos. 201-213, general methodology of example 5
[6] = compound nos. 102-196, general methodology of example 5

IC50 ([3]; compound nos. 401-703): > 500 nM
IC50 ([4]; compound nos. 401-703): < 500 nM
SMILES: Nc1nc2c(-c3c(Cl)cc4c(N5CCC6CCC(C5)N6)nc(OC[C@@]56CCCN5C[C@H](F)C6)nc4c3F)ccc(F)c2s1 (stereo partly drawn) [Compound 684, 4-(4-(3,9-diazabicyclo-[4.2.1]nonan-3-yl)-6-chloro-8-fluoro-2-(((2R,7aS)-2-fluorotetrahydro-1H-pyrrol-izin-7a(5H)-yl)methoxy)-quinazolin-7-yl)-7-fluoro-benzo[d]thiazol-2-amine]

IC50 [3, 5]: < 1500 nM
IC50 [4, 5]: < 1500 nM
SMILES: Nc1nc2c(-c3c(Cl)cc4c(N5CC6CCC(C5)NC6)nc(OC[C@@]56CCCN5C[C@H](F)C6)nc4c3F)ccc(F)c2s1 (stereo partly drawn) [Compound 213, 4-(4-(3,6-diazabicyclo-[3.2.2]nonan-3-yl)-6-chloro-8-fluoro-2-(((2R,7aS)-2-fluorotetrahydro-1H-pyrrolizin-7a(5H)-yl)meth-oxy)quinazolin-7-yl)-7-fluorobenzo[d]thiazol-2-amine]

IC50 [3, 6]: < 500 nM
IC50 [4, 6]: < 500 nM
SMILES: CN1CCC[C@H]1COc1nc(N2CCOCC(F)(F)C2)c2cc(Cl)c(-c3ccc(F)c4sc(N)nc34)c(F)c2n1 [Compound 106, 4-(6-chloro-4-(6,6-difluoro-1,4-oxazepan-4-yl)-8-fluoro-2-(((S)-1-methylpyrrolidin-2-yl)methoxy)quinazolin-7-yl)-7-fluorobenzo[d]thiazol-2-amine]

IC50 ([3]; compound nos. 401-703): > 500 nM
IC50 ([4]; compound nos. 401-703): < 500 nM
SMILES: Nc1nc2c(-c3c(Cl)cc4c(N5CCN(S(=O)(=O)C6CC6)CC(F)(F)C5)nc(OC[C@@]56CCCN5C[C@H](F)C6)nc4c3F)ccc(F)c2s1 [Compound 576]

IC50 [3, 5]: < 1500 nM
IC50 [4, 5]: < 1500 nM
SMILES: Nc1nc2c(-c3c(Cl)cc4c(N5CC6CNC(C6)C5)nc(OC[C@@]56CCCN5C[C@H](F)C6)nc4c3F)ccc(F)c2s1 (stereo partly drawn) [Compound 201, 4-(4-(3,6-diazabicyclo[3.2.1]octan-3-yl)-6-chloro-8-fluoro-2-(((2R,7aS)-2-fluorotetrahydro-1H-pyrrolizin-7a(5H)-yl)methoxy)quinazolin-7-yl)-7-fluorobenzo[d]thiazol-2-amine]

IC50 [3, 6]: < 500 nM
IC50 [4, 6]: < 500 nM
SMILES: CN1CCC[C@H]1COc1nc(N2CCSCC(F)(F)C2)c2cc(Cl)c(-c3cccc4sc(N)nc34)c(F)c2n1 [Compound 136, 4-(6-chloro-4-(6,6-difluoro-1,4-thiazepan-4-yl)-8-fluoro-2-(((S)-1-methylpyrrolidin-2-yl)methoxy)quinazolin-7-yl)benzo[d]thiazol-2-amine]

Continued, compound first:

SMILES: CN1CCC[C@H]1COc1nc(N2CCCNCC2)c2cc(Cl)c(-c3cccc4sc(N)nc34)c(F)c2n1 [Compound 101, 4-(6-chloro-4-(1,4-diazepan-1-yl)-8-fluoro-2-(((S)-1-methylpyrrolidin-2-yl)methoxy)quinazolin-7-yl)benzo[d]thiazol-2-amine]
IC50 [1]: < 500 nM
IC50 [2]: > 500 nM

SMILES: O=C(c1cc(O)cc2ccccc12)N1CCc2nc(OCC34CCCN3CCC4)nc(N3CC4CCC(C3)N4)c2CC1 [Compound 694, (4-(3,8-diazabicyclo[3.2.1]-octan-3-yl)-2-((tetrahydro-1H-pyrrolizin-7a(5H)-yl)-methoxy)-5,6,8,9-tetrahydro-7H-pyrimido[4,5-d]azepin-7-yl)(3-hydroxynaphthalen-1-yl)methanone]
IC50 ([3]; compound nos. 401-703): > 500 nM
IC50 ([4]; compound nos. 401-703): > 500 nM

SMILES: Nc1nc2c(-c3c(Cl)cc4c(N5CCNCC(F)(F)C5)nc(Oc5cccnc5C5CC5)nc4c3F)cccc2s1 [Compound 145, 4-(6-chloro-2-((2-cycloprop-ylpyridin-3-yl)oxy)-4-(6,6-difluoro-1,4-diazepan-1-yl)-8-fluoroquinazolin-7-yl)-benzo[d]thiazol-2-amine]
IC50 [3, 6]: > 500 nM
IC50 [4, 6]: > 500 nM

SMILES: Nc1c(-c2c(Cl)cc3c(N4CC5CCC(C4)N5)nc(OCC45CCCN4CCC5)nc3c2F)cccc1C(F)(F)F [Compound 527, 2-(4-(3,8-diazabicyclo-[3.2.1]octan-3-yl)-6-chloro-8-fluoro-2-((tetrahydro-1H-pyrrolizin-7a(5H)-yl)meth-oxy)quinazolin-7-yl)-6-(trifluoromethyl)aniline]
IC50 ([3]; compound nos. 401-703): > 500 nM
IC50 ([4]; compound nos. 401-703): > 500 nM

SMILES: CN1CCC[C@H]1COc1nc(N2CCCC(NS(=O)(=O)C3CC3)CC2)c2cc(Cl)c(-c3cccc4sc(N)nc34)c(F)c2n1 (stereo partly drawn) [Compound 472, N-(1-(7-(2-aminobenzo[d]-thiazol-4-yl)-6-chloro-8-fluoro-2-(((S)-1-methylpyr-rolidin-2-yl)methoxy)quin-azolin-4-yl)azepan-4-yl)-cyclopropanesulfonamide]
IC50 ([3]; compound nos. 401-703): < 500 nM
IC50 ([4]; compound nos. 401-703): < 500 nM
